Converted amounts (≈) assume the structure as drawn. Where a SMILES comes first, the peptide text is derived from it. [ ]: non-standard residue; d: D form.
Legend:
P. aeruginosa = experiment: MIC, broth dilution; format: cell-based, Pseudomonas aeruginosa KCCM 11328; conditions: 16 h, MH media, read-out: Minimal Inhibitory Concentration (MIC)
Description: (§1) Escherichia coli KCTC 1682 was obtained from the Korean Collection for Type Cultures (KCTC) (Jeongeup-si, Korea), Acinetobacter baumannii KCCM 40203, Pseudomonas aeruginosa KCCM 11328 from the Korea Culture Center of Microorganisms (KCCM) (Seoul, Korea). Klebsiella pneumoniae NCCP 16054 were obtained from the National Culture Collection for Pathogens (NCCP) (Osong, Korea). Additionally, two carbapenem-resistant E. coli (CREC E1 and E2), 11 carbapenem-resistant A. baumannii (CRAB C0–C10) and two carbapenem-resistant K. pneumoniae (CRKP K1 and K2) were isolated from the patients, who presented symptoms and signs of infection at Korea University Anam Hospital (Seoul, Korea) (IRB registration no. 2020AN0157, 4 March 2021). CRAB C0–C10 have the OXA-23 gene with carbapenem-resistance.
(§2) The minimum inhibitory concentrations (MIC) were determined using broth dilution method. Briefly, all the mentioned bacterial strains were grown overnight at 37 °C by Muller–Hinton (MH) media. […] After 16 h incubation, the bacterial growth was read at 600 nm using a SpectraMAX microplate reader (Molecular Devices, San Jose, CA, USA).

CRKP K2 = experiment: MIC, broth dilution; format: cell-based, carbapenem-resistant K. pneumoniae; conditions: read-out: Minimal Inhibitory Concentration (MIC)
Description: as §1, §2

CRKP K1 = experiment: MIC, broth dilution; format: cell-based, carbapenem-resistant K. pneumoniae; conditions: read-out: Minimal Inhibitory Concentration (MIC)
Description: as §1, §2

CREC E1 = experiment: MIC, broth dilution; format: cell-based, carbapenem-resistant E. coli; conditions: read-out: Minimal Inhibitory Concentration (MIC)
Description: as §1, §2

CREC E2 = experiment: MIC, broth dilution; format: cell-based, carbapenem-resistant E. coli; conditions: read-out: Minimal Inhibitory Concentration (MIC)
Description: as §1, §2

[1] = tested on: RAW 264.7 murine macrophage cells; experiment: Cytotoxicity, WST-8 assay; format: cell-based, mouse; conditions: 100 μM, 24 h
Protocol: (§3) Figure 6 In vitro cytotoxicity of Pro9-3 and their analogues. (A) Dose-response curve represent the hemolytic activity of peptides against sheep red blood cell (sRBC). Concentration-dependent (0–100 μM) toxic effects induced by peptides on (B) RAW 264.7 murine macrophage cells and (C) human kidney (HK)-2 cells for 24 h. Melittin was used as a control. Statistical analysis was performed using two-way analysis of variance (ANOVA) with Dunnett’s comparison test. Values are expressed as mean ± SEM of three independent experiments. * p < 0.05, ** p < 0.01, *** p < 0.001, and ns, non-significant compared with the control.
(§4) RAW 264.7 mouse macrophage cells and Human kidney (HK)-2 cells were obtained from Korean cell line bank (Seoul, Korea) and the cells were maintained in DMEM culture media (Thermo Fischer Scientific Inc., Waltham, MA, USA) supplemented with 10% fetal bovine serum, 1% penicillin/streptomycin at 37 °C in a humidified 5% CO2 incubator. The cytotoxicity of the peptides was analyzed using WST-8 cell proliferation assay (Biomax Co, Ltd., Seoul, Korea), and the experiment was performed according to the kit protocol. Briefly, cells (1 × 10^4) were seeded in 96-well plate and the peptides treatment (0–100 μM) were initiated at 80% confluency and then for 24 h. After incubation, WST-8 reagent was added and the change in absorbance was read at 450 nm against reagent blank, and values are expressed as percent cell survival.

[2] = tested on: human kidney (HK)-2 cells; experiment: Cytotoxicity, WST-8 assay; format: cell-based; conditions: 100 μM, 24 h
Protocol: as §3, §4

CRAB C0 outer membrane = experiment: Outer membrane permeability, NPN uptake; format: cell-based, carbapenem-resistant A. baumannii
Protocol: The effect of peptides on the disturbance of CRAB C0 outer membrane was analyzed using 1-N-phenylnaphthylamine (NPN, Sigma-Aldrich, St. Louis, MO, USA) uptake assay, as previously described. Briefly, CRAB C0 cell suspensions were mixed with NPN (1 mM) and the background fluorescence was recorded for subtraction (excitation λ = 350 nm, emission λ = 420 nm) using RF-6000PC fluorescent spectrophotometer (Shimadzu Scientific Instruments, Kyoto, Japan). Changes in the NPN fluorescence were recorded after addition of different concentrations of peptides and values are expressed as—fluorescence intensity (A.U.).

CC[C@@H](C)[C@@H](NC(=O)[C@@H](Cc1c[nH]c2ccccc12)NC(=O)[C@@H](CCCNC(=N)N)NC(=O)[C@H](N)CCCNC(=N)N)C(=O)N[C@H](C)C(=O)N[C@H](CC(C)C)C(=O)N[C@H](Cc1c[nH]c2ccccc12)C(=O)N[C@H](CC(C)C)C(=O)N[C@H](CCCNC(=N)N)C(N)=O [R-Pro9-3D, rrwialwlr-NH2] (H-[dR][dR][dW][dI][dA][dL][dW][dL][dR]-NH2)
MIC (P. aeruginosa): 8 µM (≈ 10.1 µg/mL) | MIC (CRKP K2): 8 µM (≈ 10.1 µg/mL) | MIC (CRKP K1): 16 µM (≈ 20.3 µg/mL) | MIC (CREC E1): 8 µM (≈ 10.1 µg/mL) | MIC (CREC E2): 8 µM (≈ 10.1 µg/mL) | Toxicity in RAW 264.7 cells [1]: 20.3% | Toxicity in human kidney (HK)-2 cells [2]: 9.6% | NPN uptake (outer membrane permeabilization) (CRAB C0 outer membrane): greater NPN uptake than their L-form peptides

From PMC8621208, “Antiseptic 9-Meric Peptide with Potency against Carbapenem-Resistant Acinetobacter baumannii Infection” (International Journal of Molecular Sciences, 2021)
